ChEMBL document CHEMBL1201862, “PubChem BioAssay data set” (2004)
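96-well plates; 48 h exposure; 5 concentrations. Endpoints by linear interpolation between flanking doses. Not reached: highest tested concentration assigned. GI50 marks 50% less growth.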 Calls of active or inactive are those of the source. Rule as the data show it: active = GI50 up to about 1.1 µM and inactive = higher.

Key:
Assay in all cases: growth of human tumour cells (NCI), 48 h
[1] = test system: 786-0
[2] = test system: CAKI-1
[3] = test system: DU-145
[4] = test system: HL-60
[5] = test system: HOP-92
[6] = test system: Hs-578T
[7] = test system: KM12
[8] = test system: M14
[9] = test system: MCF7
[10] = test system: Malme-3M
[11] = test system: NCI-H23
[12] = test system: NCI-H522
[13] = test system: NCI/ADR-RES
[14] = test system: OVCAR-5
[15] = test system: RXF 393
[16] = test system: SF-295
[17] = test system: SF-539
[18] = test system: SK-OV-3
[19] = test system: U-251
[20] = test system: UO-31

| Compound | GI50 [1] | GI50 [2] | GI50 [3] | GI50 [4] | GI50 [5] | GI50 [6] | GI50 [7] | GI50 [8] | GI50 [9] | GI50 [10] | GI50 [11] | GI50 [12] | GI50 [13] | GI50 [14] | GI50 [15] | GI50 [16] | GI50 [17] | GI50 [18] | GI50 [19] | GI50 [20] |
| --- | --- | --- | --- | --- | --- | --- | --- | --- | --- | --- | --- | --- | --- | --- | --- | --- | --- | --- | --- | --- |
| c1ccc2c(c1)ccn1ccc3c4ccccc4nc-3c21 | 0.178 µM (active) | 0.417 µM (active) | 0.351 µM (active) | 0.297 µM (active) | 1.41 µM (inactive) | 1.23 µM (inactive) | 0.346 µM (active) | 0.38 µM (active) | 0.229 µM (active) | 0.644 µM (active) | 0.289 µM (active) | 0.3 µM (active) | 0.33 µM (active) | 0.475 µM (active) | 0.439 µM (active) | 0.426 µM (active) | 0.369 µM (active) | 0.566 µM (active) | 0.299 µM (active) | 0.34 µM (active) |
| COCC(/N=C\N1CCCc2ccccc2[C@@H]1CCCCl)C(C)(C)C (stereo not given in full) | 7.96 µM (inactive) | 1.58 µM (inactive) | > 100 µM (inactive) | 0.619 µM (active) | 7.19 µM (inactive) | 0.0184 µM (active) | 4.24 µM (inactive) | 4.55 µM (inactive) | 0.351 µM (active) | 0.332 µM (active) | 0.421 µM (active) | 0.557 µM (active) | 0.392 µM (active) | 13.6 µM (inactive) | 13.1 µM (inactive) | 17.2 µM (inactive) | 12.1 µM (inactive) | 14.6 µM (inactive) | 6.89 µM (inactive) | 12.2 µM (inactive) |
| COc1cc(Nc2c(C#N)[n+]([O-])c3ccccc3[n+]2[O-])cc(OC)c1OC | 20 µM (inactive) | 38.1 µM (inactive) | 43.3 µM (inactive) | 41.2 µM (inactive) | 28.1 µM (inactive) | > 100 µM (inactive) | 37.7 µM (inactive) | 15 µM (inactive) | 24.2 µM (inactive) | 35.2 µM (inactive) | 19.6 µM (inactive) | 29.1 µM (inactive) | 17.3 µM (inactive) | 22.3 µM (inactive) | 33.8 µM (inactive) | 46.3 µM (inactive) | 33.6 µM (inactive) | 15.7 µM (inactive) | 38 µM (inactive) | > 100 µM (inactive) |
| N#C[C@H](c1nc2ccccc2[nH]1)c1nc2ccccc2nc1Cl | 7.62 µM (inactive) | 4.68 µM (inactive) | 1.78 µM (inactive) | 0.881 µM (active) | > 29 µM (inactive) | 2.05 µM (inactive) | 4.35 µM (inactive) | > 23.4 µM (inactive) | > 26 µM (inactive) | 12.4 µM (inactive) | > 34.3 µM (inactive) | 2.85 µM (inactive) | 29.8 µM (inactive) | > 44.3 µM (inactive) | > 100 µM (inactive) | > 61.4 µM (inactive) | > 100 µM (inactive) | > 53.8 µM (inactive) | 15.8 µM (inactive) | > 47 µM (inactive) |
| C=CCN(c1cc(OCc2ccccc2)c2[nH]cc(C)c2c1)S(C)(=O)=O | 33.8 µM (inactive) | 61.7 µM (inactive) | 40 µM (inactive) | > 100 µM (inactive) | 44 µM (inactive) | 45.8 µM (inactive) | 51.4 µM (inactive) | > 100 µM (inactive) | 59.7 µM (inactive) | 27.5 µM (inactive) | 87.1 µM (inactive) | 37 µM (inactive) | 53.1 µM (inactive) | 79.8 µM (inactive) | 23.1 µM (inactive) | 31.5 µM (inactive) | 56.2 µM (inactive) | 37.3 µM (inactive) | 46.7 µM (inactive) | 41.8 µM (inactive) |
| NC1=CN2c3ccccc3N(CC(=O)N3CCOCC3)C2C=C1 (stereo not given) | > 100 µM (inactive) | > 100 µM (inactive) | > 100 µM (inactive) | > 100 µM (inactive) | > 100 µM (inactive) | > 100 µM (inactive) | > 100 µM (inactive) | > 100 µM (inactive) | > 100 µM (inactive) | > 100 µM (inactive) | > 100 µM (inactive) | > 100 µM (inactive) | > 100 µM (inactive) | > 100 µM (inactive) | > 100 µM (inactive) | > 100 µM (inactive) | > 100 µM (inactive) | > 100 µM (inactive) | > 100 µM (inactive) | > 100 µM (inactive) |
